For the test, the system named is MCH receptors. Kind of test: MCH receptor activity class (method not given).
Where [1] appears, read: class by percent of control at 10^-7 M or IC50.
[2] abbreviates: activity class per percent of control at 10^-7 M or IC50.

Here are results for 22 compounds from patent US20050197350A1, “Novel quinoline, tetrahydroquinazoline, and pyrimidine derivatives and methods of treatment related to the use thereof” (TAISHO PHARMACEUTICAL CO., LTD., priority 2003, published 2005).

With `CN(C)c1ccnc(N[C@H]2CC[C@@H](NC(=O)C(CC(=O)c3ccc(Cl)cc3)SCc3ccc(Cl)cc3)CC2)n1` (relative stereo) [compound 881], under setting [1], the class is on record as 3 (Class 3 The value of percent of control at 10^−7 M was more than 60% or the value of IC50 was more than 200 nM.).
Consider `Cc1ccc(C(=O)CC(SCc2ccc(Cl)cc2)C(=O)N[C@H]2CC[C@@H](Nc3nccc(N(C)C)n3)CC2)cc1` (relative stereo) [compound 882], for which the class under setting [1] is listed as 3 (Class 3 The value of percent of control at 10^−7 M was more than 60% or the value of IC50 was more than 200 nM.).
Regarding `CC1=C(CC(=O)N[C@H]2CC[C@@H](Nc3nccc(N(C)C)n3)CC2)c2cc(F)ccc2/C1=C/c1ccc([S+](C)[O-])cc1` (relative stereo) [compound 883, N-(cis-4-{[4-(dimethylamino)pyrimidin-2-yl]amino}cyclohexyl)-2-{(1E)-5-fluoro-2-methyl-1-[4-(methylsulfinyl)benzylidene]-1H-inden-3-yl}acetamide], the class under setting [1] is 2 (Class 2: The value of percent of control at 10^−7 M was from 40% to 60% or the value of IC′50 was from 50 nM to 200 nM.).
Same read-out and setting: next, `CC(C(=O)N[C@H]1CC[C@@H](Nc2nccc(N(C)C)n2)CC1)c1ccc(C(=O)c2cccs2)cc1` (relative stereo) [compound 884, N-(cis-4-{[4-(dimethylamino)pyrimidin-2-yl]amino}cyclohexyl)-2-[4-(2-thienylcarbonyl)phenyl]propanamide]: 2 (Class 2: The value of percent of control at 10^−7 M was from 40% to 60% or the value of IC′50 was from 50 nM to 200 nM.); `COC(C(=O)N[C@H]1CC[C@@H](Nc2nccc(N(C)C)n2)CC1)c1ccccc1` (relative stereo) [compound 916]: 3 (Class 3 The value of percent of control at 10^−7 M was more than 60% or the value of IC50 was more than 200 nM.); `CN(C)c1ccnc(N[C@H]2CC[C@@H](NC(=O)C3CCc4ccccc4C3)CC2)n1` (relative stereo) [compound 917]: 3 (Class 3 The value of percent of control at 10^−7 M was more than 60% or the value of IC50 was more than 200 nM.).
For the compound `CN(C)c1ccnc(N[C@H]2CC[C@@H](CNC(=O)C(Cc3ccccc3)c3ccccc3)CC2)n1` (relative stereo) [compound 930, N-[(cis-4-{[4-(dimethylamino)pyrimidin-2-yl]amino}cyclohexyl)methyl]-2,3-diphenylpropanamide], the class under setting [1] is 2 (Class 2: The value of percent of control at 10^−7 M was from 40% to 60% or the value of IC′50 was from 50 nM to 200 nM.).
As to `CN(C)c1ccnc(N[C@H]2CC[C@@H](CNC(=O)C3CC(=O)c4ccccc43)CC2)n1` (relative stereo) [compound 935, N-[(cis-4-{[4-(dimethylamino)pyrimidin-2-yl]amino}cyclohexyl)methyl]-3-oxoindane-1-carboxamide], the class under setting [1] is on record as 1 (Class 1: The value of percent of control at 10^−7 M was less than 40% or the value of IC50 was less than 50 nM.).
As for `CCOc1ccc(C(=O)CC(C(=O)NC[C@H]2CC[C@@H](Nc3nccc(N(C)C)n3)CC2)C2C(=O)N(c3ccccc3)N=C2C)cc1` (relative stereo) [compound 944], under setting [1], the class is reported as 3 (Class 3 The value of percent of control at 10^−7 M was more than 60% or the value of IC50 was more than 200 nM.).
Consider `CN(C)c1nc(N[C@H]2CC[C@@H](NC(=O)C(Cc3ccccc3)c3ccccc3)CC2)nc2c1CCCC2` (relative stereo) [compound 954], for which the class under setting [1] is on record as 2 (Class 2: The value of percent of control at 10^−7 M was from 40% to 60% or the value of IC′50 was from 50 nM to 200 nM.).
For the compound `CN(C)c1nc(N[C@H]2CC[C@@H](NC(=O)C3CC(=O)c4ccccc43)CC2)nc2c1CCCC2` (relative stereo) [compound 960], under setting [1], the class is on record as 2 (Class 2: The value of percent of control at 10^−7 M was from 40% to 60% or the value of IC′50 was from 50 nM to 200 nM.).
For the compound `CN(C)c1nc(N[C@H]2CC[C@@H](NC(=O)[C@H](CCCCNC(=O)c3ccccc3)NC(=O)c3ccccc3)CC2)nc2c1CCCC2` (relative stereo) [compound 980], the class under setting [2] was 2 (Class 2: The value of percent of control at 10^−7 M was from 40% to 60% or the value of IC′50 was from 50 nM to 200 nM.).
`CC(C(=O)N[C@H]1CC[C@@H](Nc2nc3c(c(N(C)C)n2)CCCC3)CC1)c1ccc(-c2ccccc2)c(F)c1` (relative stereo) [compound 984]: under setting [2], the class is on record as 2 (Class 2: The value of percent of control at 10^−7 M was from 40% to 60% or the value of IC′50 was from 50 nM to 200 nM.).
In the case of `COc1ccc2c(c1)C(CC(=O)N[C@H]1CC[C@@H](Nc3nc4c(c(N(C)C)n3)CCCC4)CC1)CC2=O` (relative stereo) [compound 988], the class under setting [2] is recorded as 3 (Class 3 The value of percent of control at 10^−7 M was more than 60% or the value of IC50 was more than 200 nM.).
As to `CN(C)c1nc(N[C@H]2CC[C@@H](NC(=O)C(CC(=O)c3ccccc3)c3c[nH]c4ccccc34)CC2)nc2c1CCCC2` (relative stereo) [compound 991], the class under setting [2] was 2 (Class 2: The value of percent of control at 10^−7 M was from 40% to 60% or the value of IC′50 was from 50 nM to 200 nM.).
Regarding `CN(C)c1nc(N[C@H]2CC[C@@H](NC(=O)C(CC(=O)c3ccc(Br)cc3)c3c[nH]c4ccccc34)CC2)nc2c1CCCC2` (relative stereo) [compound 992], the class under setting [2] was 3 (Class 3 The value of percent of control at 10^−7 M was more than 60% or the value of IC50 was more than 200 nM.).
On the same count and under the same terms, the figure for `CCc1cccc2c(C(CC(=O)c3ccc(C(C)(C)C)cc3)C(=O)N[C@H]3CC[C@@H](Nc4nc5c(c(N(C)C)n4)CCCC5)CC3)c[nH]c12` (relative stereo) [compound 996] is 1 (Class 1: The value of percent of control at 10^−7 M was less than 40% or the value of IC50 was less than 50 nM.); for `CN(C)c1nc(N[C@H]2CC[C@@H](NC(=O)C(CC(=O)c3ccc(C(C)(C)C)cc3)c3cn(C)c4ccccc34)CC2)nc2c1CCCC2` (relative stereo) [compound 997] it is 3 (Class 3 The value of percent of control at 10^−7 M was more than 60% or the value of IC50 was more than 200 nM.); for `Cc1ccc(C(=O)CC(C(=O)N[C@H]2CC[C@@H](Nc3nc4c(c(N(C)C)n3)CCCC4)CC2)c2cn(C)c3ccccc23)cc1` (relative stereo) [compound 998] it is 2 (Class 2: The value of percent of control at 10^−7 M was from 40% to 60% or the value of IC′50 was from 50 nM to 200 nM.).
Consider `CCCN(CCC)C(=O)[C@H](CCC(=O)N[C@H]1CC[C@@H](Nc2nc3c(c(N(C)C)n2)CCCC3)CC1)NC(=O)c1ccccc1` (relative stereo) [compound 1006], for which, under setting [2], the class was 1 (Class 1: The value of percent of control at 10^−7 M was less than 40% or the value of IC50 was less than 50 nM.).
As for `CN(C)c1nc(N[C@H]2CC[C@@H](NC(=O)C(CC(=O)c3ccc(Cl)cc3)SCc3ccc(Cl)cc3)CC2)nc2c1CCCC2` (relative stereo) [compound 1017], under setting [2], the class was 3 (Class 3 The value of percent of control at 10^−7 M was more than 60% or the value of IC50 was more than 200 nM.).
On to `Cc1ccc(C(=O)CC(SCc2ccc(Cl)cc2)C(=O)N[C@H]2CC[C@@H](Nc3nc4c(c(N(C)C)n3)CCCC4)CC2)cc1` (relative stereo) [compound 1018], for which the class under setting [2] is recorded as 2 (Class 2: The value of percent of control at 10^−7 M was from 40% to 60% or the value of IC′50 was from 50 nM to 200 nM.).
